pIC50: −log10 of the molar value.
Target: T1, Interstitial collagenase (Homo sapiens, UniProt P03956)
T1 sequence (P03956 whole entry): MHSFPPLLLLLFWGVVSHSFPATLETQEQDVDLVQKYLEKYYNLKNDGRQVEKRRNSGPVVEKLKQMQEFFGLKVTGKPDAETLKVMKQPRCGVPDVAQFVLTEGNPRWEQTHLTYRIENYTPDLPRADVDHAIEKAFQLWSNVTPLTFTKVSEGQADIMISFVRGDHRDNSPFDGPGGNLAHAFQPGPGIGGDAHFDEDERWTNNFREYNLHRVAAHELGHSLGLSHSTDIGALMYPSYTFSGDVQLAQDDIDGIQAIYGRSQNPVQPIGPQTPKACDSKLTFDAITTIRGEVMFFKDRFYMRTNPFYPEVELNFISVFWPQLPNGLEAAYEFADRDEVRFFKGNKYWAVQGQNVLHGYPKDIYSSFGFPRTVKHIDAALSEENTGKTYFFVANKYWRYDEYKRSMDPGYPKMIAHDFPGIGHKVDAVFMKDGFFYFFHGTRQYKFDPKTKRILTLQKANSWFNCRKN
Assay: Inhibitory activity was tested against human collagenase (MMP-1)

CNC(=O)[C@H](Cc1ccc(OC)cc1)NC(=O)C(Cc1ccc(OC)cc1S)CC(C)C (stereo not given in full)
pIC50: 6.85

CNC(=O)[C@H](Cc1ccc(OC)cc1)NC(=O)[C@H](Cc1ccccc1S)CC(C)C
pIC50: 7.26

CNC(=O)[C@H](Cc1ccc(OC)cc1)NC(=O)[C@@H](Cc1cccc(OC)c1S)CC(C)C
pIC50: 6.66

CNC(=O)[C@H](Cc1ccc(OC)cc1)NC(=O)C(Cc1c(S)cccc1Cl)CC(C)C (stereo not given in full)
pIC50: 6.49

CC(C)CC(Cc1ccccc1S)C(=O)NC1CCCCCCCCCCNC1=O (stereo not given)
pIC50: < 4.00

CNC(=O)[C@H](Cc1ccc(OC)cc1)NC(=O)[C@H](CC(C)C)[C@H](C)S
pIC50: 7.77

CNC(=O)[C@H](Cc1ccc(OC)cc1)NC(=O)C(Cc1ccc(Cl)cc1S)CC(C)C (stereo not given in full)
pIC50: 6.64

CNC(=O)[C@H](Cc1ccccc1)NC(=O)[C@H](Cc1ccccc1S)CC(C)C
pIC50: 7.52

CNC(=O)[C@H](Cc1ccc(OC)cc1)NC(=O)C(Cc1cccc(C(F)(F)F)c1S)CC(C)C (stereo not given in full)
pIC50: 6.54

CNC(=O)[C@H](Cc1ccc(OC)cc1)NC(=O)[C@H](Cc1cccc(OC)c1S)CC(C)C
pIC50: 6.80

CNC(=O)[C@H](Cc1ccc(OC)cc1)NC(=O)[C@H](CC(C)C)[C@@H](S)c1ccccc1
pIC50: 6.57

CNC(=O)[C@H](Cc1ccc(OC)cc1)NC(=O)C(Cc1ccc[nH]c1=S)CC(C)C (stereo not given in full)
pIC50: < 4.00

CNC(=O)[C@H](Cc1ccccc1)NC(=O)[C@@H](Cc1ccccc1S)CC(C)C
pIC50: 5.96

CNC(=O)[C@H](Cc1ccc(OC)cc1)NC(=O)[C@@H](Cc1ccccc1S)CC(C)C
pIC50: 6.47

CNC(=O)[C@H](Cc1ccc(OC)cc1)NC(=O)C(Cc1cccc(Cl)c1S)CC(C)C (stereo not given in full)
pIC50: 6.48

— ChEMBL document CHEMBL1152014, “Synthesis of thiophenol derivatives as inhibitors of human collagenase” (Bioorg Med Chem Lett, 1995)
